One compound from patent US20040038947A1, “Method of treating ischemia/reperfusion injury with nitroxyl donors” (The Gov. of the U.S. of America as represented by the Sec. …, priority 2002, published 2004) can be followed below.

SMILES strings stand for the structures.

For one data set, the system named is Isolated rat hearts. The experiment in a line: Myocardial injury: infarct area by nitro blue tetrazolium staining. The note with it: AS 1 μM pre-ischemic; p<0.01 vs controls. As for the experimental part:
Experimental Protocols. Hearts were allowed to stabilize for 30 min, and baseline parameters were recorded. Typically, coronary flow was adjusted within the first 10 min and kept constant from thereon. After 30 min stabilization, hearts were randomly assigned to one of the treatment groups reported below (n=12 in each group), and then subjected to 30 min global, no-flow ischemia, followed by 30 min of reperfusion (I/R) (see FIG. 1). Pacing of the hearts was stopped at the beginning of the ischemic period and restarted after the third minute of reperfusion.
Hearts in the control group (Group 1) were perfused with buffer for an additional 29 min after stabilization. Group 2 hearts were exposed to AS (1 μM final concentration) for 19 min followed by a 10 min buffer wash-out period. Group 3 hearts were exposed to DEA/NO (0.5 μM final concentration) administered in the same manner as AS. The concentration of DEA/NO was only one half of that of AS since DEA/NO releases up to two moles of […] per mole of donor molecule. In Group 4, a train of three cycles of 3 min global ischemia followed by 5 min of reperfusion was applied after the stabilization phase, followed by a final 10 min buffer wash-out period (IPC protocol).
Group 5 hearts were exposed to the vehicle (NaOH, final concentration 100 nM) used to dissolve both AS and DEA/NO. To test the influence of switching the myocardial redox state on AS-induced effects, in an additional group of hearts (Group 6) AS was co-infused with N-acetyl-L-cysteine (NAC, 4 mM final concentration). For comparison, hearts were also exposed to NAC alone (Group 7). […]
To corroborate the data relative to myocardial injury, determined by LDH release, infarct areas were also assessed in a blinded fashion. […] The weight of the necrotic and non-necrotic tissues was then determined and the necrotic mass expressed as a percentage of total left ventricular mass.

The nature of another data set: Nitroxyl donation pH. The note with it: donates from this pH to about 10. The class given is physicochemical. The source says:
“Nitroxyl donation pH” is the pH at which and above which a nitroxyl-donating compound donates nitroxyl.
Further, compounds are easily tested for nitroxyl donation with routine experiments. Although it is impractical to directly measure whether nitroxyl is donated, several tests are accepted for determining whether a compound donates nitroxyl. For example, the compound of interest can be placed in solution, for example in water, in a sealed container. After sufficient time for disassociation has elapsed, such as from several minutes to several hours, the headspace gas is withdrawn and analyzed to determine its composition, such as by gas chromatography and/or mass spectroscopy. […] Nitroxyl donation also can be detected by exposing the target donor to metmyoglobin (Mb^3+). Nitroxyl reacts with Mb^3+ to form an Mb^2+-NO complex, which can be detected by changes in the ultraviolet/visible spectrum or by Electron Paramagnetic Resonance (EPR). […]
Testing for nitroxyl donation in some cases is performed at a range of pHs to determine the nitroxyl donation pH of the nitroxyl-donating compound. […] After the lowest pH at which nitroxyl donation occurs in a first set of tests is found, additional tests can be performed with narrower ranges of pH around the first determined nitroxyl donation pH to obtain a more specific nitroxyl donation pH. […]

For `[Na+].[Na+].[O-][N+]([O-])=NO` [AS, sodium trioxodinitrate], the “Infarct size reduction compared to controls” value in the data set with Isolated rat hearts is listed as 55%. Also, in “Nitroxyl donation pH”, the “Nitroxyl donation pH (pH at and above which nitroxyl is donated)” value is listed as “about 3”.
